{
  "source": "patent US20040235920A1",
  "about": "“Novel use of substituted aminomethyl chromans for the treatment of movement disorders and of adverse effects induced by drugs administered to treat extrapyramidal movement disorders” (priority 2001, published 2004)",
  "key": {"[1]": {"test_system": "rats with posthypoxic myoclonus", "assay": "Posthypoxic myoclonus in rats after cardiac arrest", "assay_type": "in vivo, rat", "details": "after 8 minutes cardiac arrest", "protocol": "A typical animal model for myoclonus is myoclonus induced by an acute hypoxic episode according to D. D. Truong et al., Mov. Dsiord., 1994; 9: 201-206). In this model of posthypoxic myoclonus, rats undergo a cardiac arrest for 8 minutes and are resuscitated thereafter. Myoclonic jerks occur spontaneously but can be provoked by auditory stimulation, too, worsening over the days following cardiac arrest."}, "[2]": {"test_system": "mutant dystonic hamster", "assay": "Mutant dystonic hamster, scoring of dystonic attacks", "assay_type": "in vivo", "details": "scoring system", "text": "A typical animal model is the mutant dystonic hamster according to A. Richter and W. Löscher, Prog. Neurobiol. 1998; 54: 633-677. In this genetically dystonic hamsters, dystonic attacks are provoked by taking the animal from the home cage and placing it on a balance. The dystonic syndrome consists of a sequence of abnormal movements, and the severity of the single symptoms is rated by a scoring system."}, "[3]": {"test_system": "neuroleptics sensitized monkey", "assay": "Neuroleptics sensitized monkey, haloperidol challenge", "assay_type": "in vivo", "details": "after haloperidol challenge, scoring system", "text": "Another typical animal model is the neuroleptics sensitized monkey according to D. E. Casey, Psychopharmacology, 1996; 124: 134-140. Monkeys treated repeatedly with conventional neuroleptics are highly sensitive to a subsequent challenge dose of neuroleptic drugs. When challenged, the monkeys immediately show extrapyramidal motor side effects such as dystonia, dyskinesias, akathisia, and bradykinesia which are rated by a scoring system. The conventional neuroleptic drug haloperidol is given as a challenge."}, "[4]": {"test_system": "patients with Huntington's disease", "assay": "Add-on trial in patients with Huntington's disease (AIMS, UHDRS)", "assay_type": "in vivo, human", "details": "2.5 to 20 mg b.i.d., typical trial", "protocol": "A typical trial to establish the effect of the compounds according to the invention on chorea, voluntary motor performance, and functional disability in patients with Huntington's disease encompasses 32 genetically diagnosed patients. (−)-(R)-2-{4-[[3,4-dihydro-2H-benzopyran-2-yl)-methyl]amino]butyl}-1,2-benzoisothiazol-3-(2H)-on-1,1-dioxide monohydrochloride or placebo is administered as “add on” to the conventional treatment, which is maintained unchanged during the whole study. The dose of blinded medication is titrated over a period of 3 weeks in a range from 2.5 to 20 mg b.i.d. Then the medication is held constant for 1 week. Assessments are performed in the week before and at the last day of the trial. Chorea is scored using the abnormal involuntary movement scale (AIMS, W. Guy, in: ECDEU assessment manual. Rockville Md: US dept. of health, education and welfare, 1976: 534-537), the unified Huntington's disease rating scale (UHDRS, Huntington study group, 1996, Movement Disord, 11: 136-42), and judgement of video recordings. Voluntary motor performance is assessed using the UHDRS motor scale. Patients and their partners complete a questionnaire regarding functional disability."}, "[5]": {"test_system": "reserpinized rat or mouse", "assay": "Reserpinized rat or mouse, akinesia in activity meters", "assay_type": "in vivo", "details": "24 h after reserpine", "protocol": "A typical animal model is the reserpinized rat or mouse (e.g. M. S. Starr and B. S. Starr, J. Neural Transm.—Park. Dis. Dement. Sect., 1994; 7: 133-142; M. Gossel et al., J. Neural Transm.—Park. Dis. Dement. Sect., 1995; 10: 27-39; N. R. Hughes et al., Mov. Disord., 1998; 13: 228-233). Reserpine is a potent depleter of monoamines and produces nearly complete akinesia in both species. Prominent 24 h after application, the distance travelled and the time active is nearly zero as measured in conventional activity meters."}, "[6]": {"test_system": "Weaver mutant mouse", "assay": "Weaver mutant mouse, locomotor activity", "assay_type": "in vivo", "details": "activity cages", "text": "Typical genetic models in mutant animals are the Campus Syndrome in the Pietrain pig according to A. Richter et al. (Exp. Neurology, 1995; 134: 205-213) or the Weaver mutant mouse according to J. R. Simon and B. Ghetti (Mol. Neurobiol., 1994; 9: 183-189). In the Campus Syndrome model, these mutant pigs show a high-frequency tremor when standing and during locomotion, but not while lying at rest. Assessment of tremor is made by accelerometric recording. In the Weaver mutant mouse, degenerative cerebellar atrophy is found in association with tremor, gait instability, and toppling over the sides after a few steps."}, "[7]": {"test_system": "3-NP treated rats", "assay": "Systemic 3-nitropropionic acid (3-NP) model in rats, nocturnal activity", "assay_type": "in vivo, rat", "protocol": "A typical animal model is the systemic 3-nitropropionic acid (3-NP) model in rats according to C. V. Borlongan et al., Brain Res., 1995; 697: 254-257. Rats are treated with injections of the selective striatal neurotoxin 3-NP i.p. every fourth day (C. V. Borlongan et al., Brain Res. Protocols, 1997; 1: 253-257). After two injections of 3-NP, rats display nocturnal hyperactivity reflecting symptoms of early Huntington's disease, whereas rats treated with four injections of 3-NP display nocturnal akinesia (hypoactivity) reflecting symptoms of late Huntington's disease. Nocturnal activity is automatically measured in conventional acitivity cages by infrared beams. (−)-(R)-2-{4-[[3,4-dihydro-2H-benzopyran-2-yl)-methyl]amino]butyl}-1,2-benzoisothiazol-3-(2H)-on-1,1-dioxide or a pharmaceutical acceptable salt thereof reduced both the nocturnal hyperactivity and akinesia."}, "[8]": {"test_system": "rat with nigrostriatal degeneration", "assay": "Striatonigral degeneration in the rat (6-hydroxydopamine plus quinolinic acid), turning behavior", "assay_type": "in vivo", "details": "automated recorder", "text": "Another more recent animal model is the striatonigral degeneration approach in the rat according to G. K. Wenning et al., J. Neural Transm. Suppl., 1999; 55: 103-113. Rats receive an unilateral injection of 6-hydroxydopamine into the left medial forebrain bundle followed by an injection of quinolinic acid into the ipsilateral striatum inducing nigrostriatal degeneration. The degeneration results in turning behavior to a challenge with dopaminomimetics such as apomorphine or amphetamine. Turning behavior is measured by an automated recorder."}, "[9]": {"test_system": "cataleptic rat", "assay": "Reversal of catalepsy in rats (oral ED50)", "assay_type": "in vivo", "details": "result in words", "protocol": "Extrapyramidal motor side effects in e.g. rodents are measured by the ability of a drug to induce catalepsy. Catalepsy is defined as a state where an animal continues to remain in an unnormal (nonphysiological ‘uncomfortable’) posture for a long time (e.g.: M. E. Stanley and S. D. Glick, Neuropharmacology, 1996; 15: 393-394; C. J. E. Niemegeers and P. Janssen, Life Sci., 1979, […]). For example, if a hindpaw of a rat is placed on an elevated level, e.g. a platform elevated 3 cm above ground level, a normal rat immediately withdraws the hindpaw from the platform to the ground level. A cataleptic rat remains in this unnatural posture even for minutes."}},
  "data": [
    {"smiles": "O=C1c2ccccc2S(=O)(=O)N1CCCCNC[C@H]1CCc2ccccc2O1", "note": "[(−)-(R)-2-{4-[[3,4-dihydro-2H-benzopyran-2-yl)-methyl]amino]butyl}-1,2-benzoisothiazol-3-(2H)-on-1,1-dioxide]", "values": [
      {"measurement": "number of auditory-evoked myoclonic jerks", "setting": "[1]", "result": "dose-dependently reduce"},
      {"measurement": "number of spontaneous myoclonic jerks", "setting": "[1]", "result": "dose-dependently reduce"},
      {"measurement": "severity of dystonic symptoms", "setting": "[2]", "result": "dose-dependently reduced"},
      {"measurement": "extrapyramidal motor side effects (dystonia, dyskinesias, akathisia, bradykinesia)", "setting": "[3]", "result": "dose-dependently reduce"},
      {"measurement": "involuntary motor performance", "setting": "[4]; AIMS, UHDRS, video", "result": "significant improvement"},
      {"measurement": "voluntary motor performance", "setting": "[4]; UHDRS motor scale", "result": "significant improvement"},
      {"measurement": "akinesia", "setting": "[5]", "result": "dose-dependently reduced akinesia"},
      {"measurement": "distance travelled and time active", "setting": "[5]; activity meters", "result": "restored distance travelled and time active to about the level of normal animals"},
      {"measurement": "locomotor activity", "setting": "[6]", "result": "enhanced locomotor activity"},
      {"measurement": "nocturnal akinesia (hypoactivity)", "setting": "[7]; after four injections of 3-NP (late Huntington's disease)", "result": "reduced"},
      {"measurement": "nocturnal hyperactivity", "setting": "[7]; after two injections of 3-NP (early Huntington's disease)", "result": "reduced"},
      {"measurement": "turning behavior induced by amphetamine", "setting": "[8]", "result": "dose-dependently antagonized"},
      {"measurement": "turning behavior induced by apomorphine", "setting": "[8]", "result": "dose-dependently antagonized"},
      {"measurement": "potency in reversing catalepsy", "setting": "[9]", "result": "extraordinary potency in reversing catalepsy"}
    ]}
  ]
}
